The subject of one series is HDAC. Briefly: HDAC fluorimetric enzyme assay (Biomol AK-500, HeLa nuclear extract). Type of series: biochemical. Here is the method: HDAC inhibitors were screened using an HDAC fluorimetric assay kit (AK-500, Biomol, Plymouth Meeting, Pa.).
Each assay was setup as follows: Defrosted all kit components and kept on ice until use. […] Prepared dilutions of Trichostatin A (TSA, positive control) and tested compounds in assay buffer (5× of final concentration). Diluted Fluor de Lys™ Substrate in assay buffer to 100 uM (50 fold=2× final). Diluted Fluor de Lys™ developer concentrate 20-fold (e.g. 50 μl plus 950 μl Assay Buffer) in cold assay buffer. Second, diluted the 0.2 mM Trichostatin A 100-fold in the 1× Developer (e.g. 10 μl in 1 ml; final Trichostatin A concentration in the 1× Developer=2 μM; final concentration after addition to HDAC/Substrate reaction=1 μM). Added Assay buffer, diluted trichostatin A or test inhibitor to appropriate wells of the microtiter plate. Added diluted HeLa extract or other HDAC sample to all wells except for negative controls.

The target of series [1] is T1, human EGFR (His672-Ala1210) (Homo sapiens, UniProt P00533).
T1 construct: human EGFR (His672-Ala1210); GST (N); purchased Cell Signaling Technologies; host or cells: baculovirus expression system
Briefly: HTScan EGF Receptor Kinase Assay. Type of series: biochemical. The note with it: for activity in EFGR enzyme assay compared with erlotinib: FIG. 1. Here is the method: The ability of compounds to inhibit receptor kinase (EGFR) activity was assayed using HTSCAN™ EGF Receptor Kinase Assay Kits (Cell Signaling Technologies, Danvers, Mass.). […] The protein was purified by one-step affinity chromatography using glutathione-agarose.
Immediately transfer enzyme from −80° C. to ice. Allowed enzyme to thaw on ice. […] Returned immediately to ice. […] Incubated reaction plate at room temperature for 30 minutes. […] Added 100 μl/well primary antibody. Incubated at room temperature for 60 minutes. […] Added 100 μl/well diluted antibody. Incubated at room temperature for 30 minutes. […] Incubated at room temperature for 5 minutes.

A further series deals with VEGFR (Homo sapiens, UniProt P35968). Briefly: VEGFR assay (Table B). Type of series: biochemical.
Series [2] concerns HDAC in MDA-MB-468 breast cancer cell line. Briefly: Inhibition of HDAC in cells (Ac-H4, Ac-H3 accumulation), FIG. 2. Type of series: cell-based. Particulars: MDA-MB-468, FIG. 2.
The test system of series [3] is EGFR in MDA-MB-468 breast cancer cell line. Briefly: Inhibition of EGFR phosphorylation in cells, FIG. 2. Type of series: cell-based. Particulars: MDA-MB-468, FIG. 2. As to the method: (b) An In Vitro Assay which Determines the Ability a Test Compound to Inhibit the EGF-Stimulated EGFR Phosphorylation.
Allowed A431 cell growth in a T75 flask using standard tissue culture procedures until cells reach near confluency (˜1.5×10^7) cells; D-MEM, 10% FBS). Under sterile conditions dispensed 100 μl of the cell suspension per well in 96-well microplates (x cells plated per well). Incubated cells and monitor cell density until confluency is achieved with well-to-well consistency; approximately three days. Removed complete media from plate wells by aspiration or manual displacement. Replaced media with 50 μl of pre-warmed serum free media per well and incubated 4 to 16 hours. Made two fold serial dilutions of inhibitor using pre-warmed D-MEM so that the final concentration of inhibitor range from 10 μM to […]. Removed media from A431 cell plate. Added 100 μl of serial diluted inhibitor into cells and incubate 1 to 2 hours. Removed inhibitor from plate wells by aspiration or manual displacement. Added either serum free media for resting cells (mock) or serum free media with 100 ng/ml EGF. Used 100 μl of resting/activation media per well. Allowed incubation at 37° C. for 7.5 minutes. Removed activation or stimulation media manually or by aspiration. Immediately fixed cells with 4% formaldehyde in 1×PBS. […]

Another series has as its system A549 NSCLC Xenograft. Briefly: A549 NSCLC xenograft model. The note with it: FIG. 11A, 11B. Type of series: in vivo, mice. As to the method: (§1) A representative protocol for the in vivo experiment is as followed:
(§2) 1-10×10^6 human cancer cells were implanted subcutaneously to the athymic (nu/nu) mice. When the tumors reached about 100 mm^3 in volume, the mice were treated with the compound by tail vein infusion. Routinely 5 groups (8-12 mice per group) are needed for a typical efficacy study, including one negative control, one positive control, and three testing groups for 3 dose levels of the same compound. Usually a 7-7-5 (on-off-on) regimen was used for one typical study. The tumor size was measured with an electronic caliper and body weight measured with a scale twice weekly. The tumors were removed from euthanized mice at the end of the study. One half of each tumor was frozen in dry ice and stored at −80° C. for PK or Western blot analysis. The other half was fixed with formalin. The fixed tissues were processed, embedded in paraffin and sectioned for immunohistochemistry staining

The subject of series [4] is HPAC pancreatic cancer cells. Briefly: HPAC pancreatic cancer xenograft. Type of series: in vivo, mice. Particulars: 120 mg/kg in 30% CAPTISOL (iv/ip) daily vs 50 mg/kg erlotinib (po); FIG. 12A. As to the method: as §1, §2
Series [5] is described as follows: Pharmacokinetic study in rats (plasma). Type of series: in vivo. Particulars: 20 and 60 mg/kg iv, hydrochloride salt in 30% CAPTISOL, FIG. 14. As to the method: Compound was administered via an intravenous (iv) infusion.
Rat: 20 mg/kg for 5 min i.v. infusion
Plasma samples were prepared by protein precipitation. An internal standard was added into plasma samples. […] The supernatant was then injected onto LC/MS/MS.
Samples were compared to standards made in plasma. These standards were prepared by serial dilution.

The next series has as its system cancer cell lines. Briefly: Anti-proliferative activity in various cancer cell lines (general statements, FIG. 3). The note with it: lung, breast, prostate, colon, pancreas cell lines. Type of series: cell-based. Here is the method: Cell Proliferation Assay:
Cancer cell lines were plated at 5,000 to 10,000 per well in 96-well flatted bottomed plates with various concentration of compounds. The cells were incubated with compounds for 72 hours in the presence of 0.5% of fetal bovine serum. Growth inhibition was accessed by adenosine triphosphate (ATP) content assay using Perkin Elmer ATPlite kit. ATPlite is an ATP monitoring system based on firefly luciferase. Briefly, 25 μl of mammalian cell lysis solution was added to 50 μl of phenol red-free culture medium per well to lyse the cells and stabilize the ATP. 25 μl of substrate solution was then added to the well and subsequently the luminescence was measured.

A short description of series [6]: Pharmacokinetic study in mice (plasma, lung, colon). Particulars: salt in 30% CAPTISOL
Method: (§3) Samples were compared to standards made in plasma. These standards were prepared by serial dilution. An internal standard was added into the plasma with standard.
(§4) Tissues were homogenized in 0.8 ml water.
On series [7], the source says: B. Filtration of the Solution
C. Preparation of a Lyophilisate
The source holds these as a separate data set.

The conditions of series [8]: mouse, in vivo.
Method: as §3, §4

The text below walks through data of US8975401B2, “Quinazoline based EGFR inhibitors containing a zinc binding moiety” (Curis, Inc., priority 2006, dated 2015).

Read-outs that look alike come from different tables or passages of the source.

Broadly, the IC50 is the concentration at which inhibition is half-maximal. As usually defined, the melting point is the temperature, or range, at which the solid turns liquid. One may read the Solubility as the dissolved amount per volume that the medium holds. The low end stands for a poorly soluble substance, the high end for a readily soluble substance.

T1 sequence (P00533 672-1210): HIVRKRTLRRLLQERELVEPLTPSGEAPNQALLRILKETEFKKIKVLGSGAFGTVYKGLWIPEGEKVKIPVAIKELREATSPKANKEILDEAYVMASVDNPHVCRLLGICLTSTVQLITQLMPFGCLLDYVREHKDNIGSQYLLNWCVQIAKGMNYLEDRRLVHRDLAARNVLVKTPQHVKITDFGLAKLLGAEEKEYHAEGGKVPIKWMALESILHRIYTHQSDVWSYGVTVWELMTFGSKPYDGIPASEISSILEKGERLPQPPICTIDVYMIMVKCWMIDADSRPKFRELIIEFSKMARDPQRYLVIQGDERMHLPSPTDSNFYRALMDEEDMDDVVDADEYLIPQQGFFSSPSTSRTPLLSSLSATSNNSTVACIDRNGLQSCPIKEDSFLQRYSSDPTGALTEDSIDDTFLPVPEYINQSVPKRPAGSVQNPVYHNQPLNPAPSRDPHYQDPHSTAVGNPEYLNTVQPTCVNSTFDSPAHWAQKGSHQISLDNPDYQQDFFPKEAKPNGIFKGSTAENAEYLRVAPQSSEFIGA
Chain of VEGFR (P35968 20-1356): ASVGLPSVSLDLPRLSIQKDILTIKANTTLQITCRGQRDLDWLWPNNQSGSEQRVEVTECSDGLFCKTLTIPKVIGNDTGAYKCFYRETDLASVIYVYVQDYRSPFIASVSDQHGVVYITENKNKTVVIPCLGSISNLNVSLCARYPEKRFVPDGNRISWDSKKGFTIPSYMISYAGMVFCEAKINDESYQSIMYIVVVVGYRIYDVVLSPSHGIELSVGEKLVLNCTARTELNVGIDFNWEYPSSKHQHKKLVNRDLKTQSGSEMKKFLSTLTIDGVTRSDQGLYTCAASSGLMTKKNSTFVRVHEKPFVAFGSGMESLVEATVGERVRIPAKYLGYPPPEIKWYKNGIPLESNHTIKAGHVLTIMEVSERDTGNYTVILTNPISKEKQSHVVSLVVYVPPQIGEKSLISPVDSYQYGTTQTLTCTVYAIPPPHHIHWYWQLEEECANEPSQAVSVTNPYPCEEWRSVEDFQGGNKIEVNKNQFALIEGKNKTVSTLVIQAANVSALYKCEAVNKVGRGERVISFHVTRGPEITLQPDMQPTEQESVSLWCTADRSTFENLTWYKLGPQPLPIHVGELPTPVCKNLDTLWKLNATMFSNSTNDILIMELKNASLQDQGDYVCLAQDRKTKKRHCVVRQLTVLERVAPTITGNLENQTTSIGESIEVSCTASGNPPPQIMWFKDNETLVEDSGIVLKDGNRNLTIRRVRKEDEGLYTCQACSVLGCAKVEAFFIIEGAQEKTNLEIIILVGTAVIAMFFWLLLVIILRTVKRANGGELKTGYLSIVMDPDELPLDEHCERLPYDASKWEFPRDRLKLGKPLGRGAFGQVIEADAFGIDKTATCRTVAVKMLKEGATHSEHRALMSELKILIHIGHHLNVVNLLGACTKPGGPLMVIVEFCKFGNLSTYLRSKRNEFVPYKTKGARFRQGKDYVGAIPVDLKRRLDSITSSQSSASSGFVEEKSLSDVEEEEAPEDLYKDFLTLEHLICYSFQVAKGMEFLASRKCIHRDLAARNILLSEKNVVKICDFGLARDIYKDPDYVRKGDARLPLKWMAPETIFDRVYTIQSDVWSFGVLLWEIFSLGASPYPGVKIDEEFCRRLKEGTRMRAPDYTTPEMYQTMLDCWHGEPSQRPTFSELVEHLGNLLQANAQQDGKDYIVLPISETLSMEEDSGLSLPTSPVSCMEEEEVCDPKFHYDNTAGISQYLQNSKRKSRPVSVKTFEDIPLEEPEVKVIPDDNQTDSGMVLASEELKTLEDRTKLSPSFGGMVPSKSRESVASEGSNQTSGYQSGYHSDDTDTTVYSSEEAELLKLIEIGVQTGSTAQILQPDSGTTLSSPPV

With `COc1cc2ncnc(Nc3ccc(F)c(Cl)c3)c2cc1OCCCCCCC(=O)NO` [Compound 6, 7-(4-(3-Chloro-4-fluorophenylamino)-7-methoxyquinazolin-6-yloxy)-N-hydroxyheptanamide], the “activity in HDAC enzyme assay compared with SAHA” value in the series on HDAC (FIG. 1) is “more active than erlotinib and SAHA”. For the same compound, the IC50 in series [1] was less than 100 nM; at VEGFR it was 100 to 1000 nM. In addition, in [1], the “activity in EFGR enzyme assay compared with erlotinib” value is “more active than erlotinib and SAHA”.
As to `C#Cc1cccc(Nc2ncnc3cc(OC)c(OCCCCCCC(=O)NO)cc23)c1` [Compound 12, 7-(4-(3-ethynylphenylamino)-7-methoxyquinazolin-6-yloxy)-N-hydroxyheptanamide], the “activity in EFGR enzyme assay compared with erlotinib” value in [1] was “more active than erlotinib and SAHA”. Besides, the “histone acetylation (Ac-H3/Ac-H4) compared with SAHA” value in series [2] was “improvement in inhibition of histone acetylation”. The “inhibition of EGFR phosphorylation compared with Erlotinib” value in series [3] was “improvement in inhibition of histone acetylation and EGFR phosphorylation”. Besides, the “effect on tumor growth / tumor size” value with A549 NSCLC Xenograft was “attenuated tumor growth”. Also, the “attenuation of tumor growth” value in series [4] is given as “greater attenuation of tumor growth than either erlotinib (po) or vehicle”. Also, in [5], the “dose proportionality of plasma concentration” value is reported as “proportional to the dose”. In the series with cancer cell lines, the “anti-proliferative potency compared with SAHA, Erlotinib and their combination” value was “responded better to compound 12 than a combination of erlotinib and SAHA”.
For `COc1cc2ncnc(N[C@H](C)c3ccccc3)c2cc1OCCCCCCC(=O)NO` [Compound 79, (R)—N-hydroxy-7-(7-methoxy-4-(1-phenylethylamino)quinazolin-6-yloxy)heptanamide], the IC50 on VEGFR is greater than 10000 nM.
In the case of `COc1cc2ncnc(NCc3ccccc3)c2cc1OCCCCCCC(=O)NO` [Compound 85, 7-(4-(Benzylamino)-7-methoxyquinazolin-6-yloxy)-N-hydroxyheptanamide], the 50% inhibitory concentration (IC50) was less than 100 nM in [1] and 1000 to 10000 nM against VEGFR.
The compound `C#Cc1cccc(Nc2ncnc3cc(OC)c(OCCCCCCC(=O)NOC)cc23)c1` [Compound 95, 7-(4-(3-ethynylphenylamino)-7-methoxyquinazolin-6-yloxy)-N-methoxyheptanamide] yielded a melting point of 195.8 to 197 °C.
On HDAC, `COc1cc2ncnc(Nc3ccc(F)c(Cl)c3)c2cc1SCCCCC(=O)NO` [Compound 151] displayed an IC50 of less than 100 nM.
At HDAC, `COc1cc2ncnc(Nc3ccc(F)c(Cl)c3)c2cc1SCCCCCCC(=O)NO` [Compound 155] registered an IC50 of less than 100 nM.
`C#Cc1cccc(Nc2ncnc3cc(OCCOC)c(OCCOC)cc23)c1` [Erlotinib, reference compound]: in the series on A549 NSCLC Xenograft, the “effect on tumor growth / tumor size” value is given as “did not significantly affect tumor size”.
Consider Citric Acid, for which the “IV Tissue” value in series [6] was “Low”.
On to Sodium, for which, in series [7], the “Chemical stability in diluted solution” value is listed as greater than 12 h, the “Dilution with D5W” value is given as greater than 10x and the Solubility was found to be 7.5 mg/mL. In addition, the pH in series [7] (salt in 30% CAPTISOL) is 10-11. Further, in [8], the “IV Tissue” value is “High”.
Turning to Tartaric Acid, the “IV Tissue” value in series [8] was “High”.
